In assay [1] the target is T1, recombinant full length VIM (Homo sapiens, UniProt P08670).
T1 construct: 1-PAP labels recombinant full length VIM in vitro
As to the kind of experiment: In vitro photo-affinity labeling of recombinant proteins with 1-PAP. Format: binding. As to the method:
To identify the relevant cellular target of Compound 1, we incubated live FOXC2-HMLER cells with 2.5 μM 1-PAP, as prepared in Example 5, for 15 minutes and subjected these cells to UV irradiation. A sample containing both 1-PAP and a 20-fold molar excess of free Compound 1 was used to distinguish specific labeling events.
VIM consists of a long rod domain, which forms a coiled coil in the presence of other VIM molecules, as well as head and tail domains. To identify which portion of the protein was the relevant site of 1-PAP labeling, we expressed these domains as GST fusion proteins. […] VIM is one of four type III intermediate filament proteins, whose members additionally include Peripherin, glial fibrillary acidic protein (GFAP), and Desmin, which share 59%, 61%, and 62% sequence similarity to VIM respectively (SIM alignment, ExPASy) (E. Fuchs et al., Annu. Rev. Biochem. 63 (1994) 345-382).

In assay [2] the test system is FOXC2-expressing HMLER cells. As to the kind of experiment: Cell Titer Glo viability of FOXC2-HMLER cells (high throughput screen and 10-point response). Format: cell-based. The note with it: Homo sapiens. The procedure, abridged: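 Viability after 72 h compound exposure was measured as Cell Titer Glo luminescence. FOXC2-HMLER and parental HMLER cells, 1,000 per well in MEGM medium, were dosed 1 h after plating; screening concentration was 2 μM.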

In the next assay the test system is FOXC2-HMLER cells. As to the kind of experiment: Confocal imaging of thymidine synced FOXC2-HMLER cells at metaphase. Format: cell-based, human. An excerpt:
Because Compound 1 induces a hyper-phosphorylated VIM phenotype, we sought to determine if Compound 1's engagement of VIM might interfere at an alternative stage of mitosis. We therefore performed time course confocal imaging studies of Compound 1 treated FOXC2-HMLER cells after their release from thymidine blocking-based cell cycle synchronization.
Compound 1 treatment also disrupted the ability of β-tubulin to faithfully form the fine spindle microtubules of the mitotic spindle, instead resulting in a compressed phenotype with radiating projections connecting unaligned chromosomes. To assess the uniqueness of this phenotype, we evaluated the metaphase phenotypes of other chemical inhibitors which have shown to alter mitotic progression. These included inhibitors of centromere-associated protein E (CENP-E, also called kinesin-7, GSK92395), kinesin spindle protein (KSP, also called Eg5, Ispinesib), polo like kinases (PLK1/2/3, BI2536), and aurora kinases (AURKA/B/C, VX-680).

For another assay, the system named is control HMLER cells. As to the kind of experiment: Cell Titer Glo viability of control HMLER cells. Format: cell-based. The note with it: Homo sapiens; 72-hour incubation; read-out: control HMLER IC50. The source says:
An engineered cancer cell line HMLER as an isogenic screening system was employed to identify compounds that are selectively toxic to the FOXC2 positive genotype. HMLER cells are derived from mammary epithelial cells (HMECs), but are virally transformed with the […] oncogene (G12V), human telomerase reverse transcriptase (hTERT), and SV40 large-T antigen (B. Elenbaas, B. et al. Genes Dev. 15 (2001) 50-65). Expression of these genes endows HMLER cells with functional immortality and tumorigenic potential at high seeding number (>10^6 cells; Hollier (2013)). […]
For high throughput screening, FOXC2-HMLER and HMLER cells were plated at 10^3 cells per well in white 384-well plates in 50 μL of MEGM medium (Lonza). […] After 72-hour incubation, 30 μL of a Cell Titer Glo solution (diluted 1:6 in water, Promega) was dispensed into each well and luminance values were recorded using an Envision plate reader. […]
More specifically, in the high throughput screening assay above, each cell line was plated at 1,000 cells per well in 384-well plates, treated for 72 hours with 2 μM of test compound, and the viability of each line was determined in parallel by Cell Titer Glo (Promega) luminance measurements. […]

The mark [3] stands for this setting: scored relative to parent compound 4, 72 hours, read-out: Activity Score, inhibition of FOXC2-expressing HMLER cells by Formula IV compounds.

The structures appear in SMILES notation. Read-outs that look alike come from different tables or passages of the source.

T1 sequence (P08670 whole entry): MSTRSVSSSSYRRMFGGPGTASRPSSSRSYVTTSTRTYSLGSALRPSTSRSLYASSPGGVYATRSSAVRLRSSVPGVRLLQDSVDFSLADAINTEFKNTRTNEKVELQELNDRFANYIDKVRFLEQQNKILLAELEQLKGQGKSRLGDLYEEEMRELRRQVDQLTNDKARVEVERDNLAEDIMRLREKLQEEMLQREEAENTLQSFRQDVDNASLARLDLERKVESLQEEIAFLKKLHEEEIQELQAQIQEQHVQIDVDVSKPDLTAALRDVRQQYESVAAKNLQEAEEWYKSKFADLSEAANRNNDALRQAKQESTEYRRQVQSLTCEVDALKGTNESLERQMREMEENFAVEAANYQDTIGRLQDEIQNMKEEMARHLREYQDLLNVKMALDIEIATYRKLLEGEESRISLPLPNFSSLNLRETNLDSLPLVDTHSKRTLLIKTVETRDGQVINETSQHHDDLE

`CC1(CC[C@H](NC(=O)CCOCCOCCNC(=O)CCCC[C@@H]2SC[C@@H]3NC(=O)N[C@@H]32)C(=O)NCCOCCOCCOc2cc(Cl)cc(N3CCN(c4cnnc5c(Cl)cccc45)CC3)c2)N=N1` [Compound 1-PAP, N—((S)-1-(3-chloro-5-(4-(8-chlorocinnolin-4-yl)piperazin-1-yl)phenoxy)-11-(2-(3-methyl-3H-diazirin-3-yl)ethyl)-10,13-dioxo-3,6,16,19-tetraoxa-9,12-diazahenicosan-21-yl)-5-((3aS,4S,6aR)-2-oxohexahydro-1H-thieno[3,4-d]imidazol-4-yl)pentanamide]: the “labeling of type III intermediate filament proteins” value in assay [1] (VIM vs Peripherin, GFAP, Desmin recombinant preparations) was “labeled VIM exclusively”. The “labeling of VIM domains expressed as GST fusion proteins” value in assay [1] (head, rod and tail domains) was “binds specifically and potently to the rod domain of VIM”.

As for `Cc1ccccc1N1CCN(S(=O)(=O)c2c(C)nn(-c3ccc(-c4ccccc4)nn3)c2C)CC1` [Compound 4AR], the IC50 in assay [2] (setting [3]) is greater than 20 µM.

For the molecule `Cc1ccc(N2CCN(S(=O)(=O)c3c(C)nn(-c4ccc(-c5ccccc5)nn4)c3C)CC2)cc1` [Compound 4AS], in assay [2] (setting [3]), the IC50 was greater than 20 µM.

As to `Cc1ccc(-c2ccc(-n3nc(C)c(S(=O)(=O)N4CCN(c5ccccc5)CC4)c3C)nn2)cc1` [Compound 4AT], the IC50 in assay [2] (setting [3]) is greater than 20 µM.

For `Cc1ccc(-c2ccc(-n3nc(C)c(S(=O)(=O)N4CCN(C(C)C)CC4)c3C)nn2)cc1` [Compound 4AU], the IC50 in assay [2] (setting [3]) was greater than 20 µM.

With `Cc1c(S(=O)(=O)N2CCN(c3cc(-c4cccc(F)c4)ncn3)CC2)cnn1C(F)F` [Compound 4A], the IC50 in assay [2] (setting [3]) was less than 1 µM.

For `Cc1ccccc1-c1cc(N2CCN(S(=O)(=O)c3cnn(C(F)F)c3C)CC2)ncn1` [Compound 4B], in assay [2] (setting [3]), the IC50 was less than 1 µM.

In the case of `COc1cccc(-c2cc(N3CCN(S(=O)(=O)c4cnn(C(F)F)c4C)CC3)ncn2)c1` [Compound 4C], the IC50 in assay [2] (setting [3]) was less than 1 µM.

As for `Cc1ccc(C)c(N2CCN(S(=O)(=O)c3c(C)nn(C)c3C)CC2)c1` [Compound 4D], the IC50 in assay [2] (setting [3]) was less than 1 µM.

With `Cc1ccc(-c2cc(N3CCN(S(=O)(=O)c4ccccc4C)CC3)ncn2)cc1` [Compound 4E], the IC50 in assay [2] (setting [3]) is less than 1 µM.

On to `Cc1cccc(N2CCN(S(=O)(=O)c3c(C)nn(-c4ccc(F)cc4)c3C)CC2)c1C` [Compound 4F], for which, in assay [2] (setting [3]), the IC50 was less than 1 µM.

Regarding `Cc1nn(-c2ccc(Cl)cc2)c(C)c1S(=O)(=O)N1CCN(c2ccccn2)CC1` [Compound 4G], the IC50 in assay [2] (setting [3]) is less than 1 µM.

In the case of `CC(=O)c1ccc(N2CCN(S(=O)(=O)c3c(C)nn(-c4ccc(C)cc4)c3C)CC2)cc1` [Compound 4H], the IC50 in assay [2] (setting [3]) was less than 1 µM.

As to `Cc1cccc(-c2cc(N3CCN(S(=O)(=O)c4ccccc4C)CC3)ncn2)c1` [Compound 4I], the IC50 in assay [2] (setting [3]) is 1 to 20 µM.

For `Cc1nn(-c2ccccc2)c(C)c1S(=O)(=O)N1CCN(c2ccccn2)CC1` [Compound 4J], the IC50 in assay [2] (setting [3]) lay within 1 to 20 µM.

As for `Cc1nn(-c2ccc(F)cc2)c(C)c1S(=O)(=O)N1CCN(c2ncccn2)CC1` [Compound 4K], in assay [2] (setting [3]), the IC50 fell in the range of 1 to 20 µM.

For the molecule `Cc1ccc(-n2nc(C)c(S(=O)(=O)N3CCN(c4ccccc4)CC3)c2C)cc1` [Compound 4L], the IC50 in assay [2] (setting [3]) is 1 to 20 µM.

For `Cc1ccc(-n2nc(C)c(S(=O)(=O)N3CCN(c4ncccn4)CC3)c2C)cc1` [Compound 4M], in assay [2] (setting [3]), the IC50 lay in the range of 1 to 20 µM.

In the case of `Cc1nn(C)c(C)c1S(=O)(=O)N1CCN(c2cccc(Cl)c2)CC1` [Compound 4N], the IC50 in assay [2] (setting [3]) is greater than 20 µM.

Turning to `Cc1cccc(N2CCN(S(=O)(=O)c3c(C)nn(C)c3C)CC2C)c1` (stereo not shown) [Compound 4O], the IC50 in assay [2] (setting [3]) is greater than 20 µM.

With `Cc1nn(C)c(C)c1S(=O)(=O)N1CCN(c2ccccc2F)CC1` [Compound 4P], in assay [2] (setting [3]), the IC50 was greater than 20 µM.

As for `Cc1nn(C)c(C)c1S(=O)(=O)N(CC(=O)N1CCN(c2ncccn2)CC1)c1ccc(C(C)C)cc1` [Compound 4Q], the IC50 in assay [2] (setting [3]) is greater than 20 µM.

`Cc1cccc(-c2cc(N3CCN(S(=O)(=O)c4ccc(C)cc4C)CC3)ncn2)c1` [Compound 4R]: the IC50 in assay [2] (setting [3]) is greater than 20 µM.

Take `Cc1cccc(-c2cc(N3CCN(S(=O)(=O)c4cnn(C(F)F)c4C)CC3)ncn2)c1` [Compound 4S]: the IC50 in assay [2] (setting [3]) was greater than 20 µM.

As for `Cc1c(S(=O)(=O)N2CCN(c3cc(-c4ccc(F)cc4)ncn3)CC2)cnn1C(F)F` [Compound 4T], the IC50 in assay [2] (setting [3]) is greater than 20 µM.

Turning to `Cc1ccc(-c2cc(N3CCN(S(=O)(=O)c4ccc(C)cc4C)CC3)ncn2)cc1` [Compound 4U], in assay [2] (setting [3]), the IC50 was greater than 20 µM.

As for `Cc1ccccc1S(=O)(=O)N1CCN(c2cc(-c3ccccc3)ncn2)CC1` [Compound 4V], the IC50 in assay [2] (setting [3]) was greater than 20 µM.

Regarding `Cc1ccc(S(=O)(=O)N2CCN(c3cc(-c4ccccc4)ncn3)CC2)c(C)c1` [Compound 4W], the IC50 in assay [2] (setting [3]) is greater than 20 µM.

Turning to `Cc1c(S(=O)(=O)N2CCN(c3cc(-c4ccccc4)ncn3)CC2)cnn1C(F)F` [Compound 4X], the IC50 in assay [2] (setting [3]) was greater than 20 µM.

As for `COc1ccc(-c2cc(N3CCN(S(=O)(=O)c4cnn(C(F)F)c4C)CC3)ncn2)cc1` [Compound 4Y], in assay [2] (setting [3]), the IC50 is greater than 20 µM.

As for `COc1ccc(F)cc1-c1cc(N2CCN(S(=O)(=O)c3cnn(C(F)F)c3C)CC2)ncn1` [Compound 4Z], the IC50 in assay [2] (setting [3]) is greater than 20 µM.

Consider `Cc1ccc(-c2cc(N3CCN(S(=O)(=O)c4cnn(C(F)F)c4C)CC3)ncn2)cc1` [Compound 4], for which the IC50 in assay [2] (setting [3]) was less than 1 µM.

With `CC(C)Oc1ccc(C(=O)N[C@H](CNC(=O)CN(C)C)Cc2ccc(-c3cn4cccc([C@H](C)O)c4n3)cc2)cc1Cl` [GSK92395], in the assay on FOXC2-HMLER cells, the “VIM filamentous structure at metaphase” value is listed as “did not induce VIM filamentous collapse” and the “chromosome alignment to the metaphase plate” value is “unaligned chromosome phenotype”.

With `COc1cccc2c1C(=O)c1c(O)c3c(c(O)c1C2=O)C[C@@](O)(C(=O)CO)C[C@@H]3O[C@H]1C[C@H](N)[C@H](O)[C@H](C)O1` [doxorubicin, reference compound], the IC50 stood at 0.447 µM in assay [2] (72-hour incubation, read-out: FOXC2-HMLER IC50) and 0.267 µM in the assay on control HMLER cells.

Values taken from US11759461B2, “Small molecule inhibitors of cancer stem cells and mesenchymal cancer types” (The Scripps Research Institute, priority 2017, dated 2023).
